The values below come from patent US11312719B2, “9-substituted amino triazolo quinazoline derivatives as adenosine receptor antagonists, pharmaceutical compositions and their use” (Merck Sharp & Dohme Corp., priority 2018, dated 2022).

The target of assay [1] is human A2b adenosine receptor (Homo sapiens (Human), UniProt P29275). Put plainly: A2b radioligand filtration binding assay. To be noted: for IC50: membranes from HEK293 cells expressing human A2b receptor. The method, then: Measurement of A2b Binding Affinity
The reported affinity of the compounds of the invention for the human A2b adenosine receptor was determined experimentally using a radioligand filtration binding assay. This assay measures the amount of binding of a tritiated proprietary A2b receptor antagonist, in the presence and absence of a compound of the invention, to membranes made from HEK293 cells recombinantly expressing the human A2b adenosine receptor (Perkin Elmer, Cat. No. ES-013-C).
148 μL (135 μg/mL) membranes and 2 μL test compounds were transferred to individual wells of a 96-well polypropylene assay plate and incubated for 15 to 30 minutes at room temperature with agitation. Tritiated radioligand was diluted to a concentration of 14 nM in assay buffer (phosphate buffered saline without Magnesium and Calcium, pH 7.4; GE Healthcare Life Sciences, Cat. No. SH30256.01) and then 50 μL of the solution were transferred to each well of the assay plate. To define total and non-specific binding, wells containing 1% DMSO and 20 μM N-ethylcarboxamidoadenosine (Tocris Bioscience, Cat. No. 1691) respectively, were also included. The wells of the assay plate were incubated at room temperature for 60 minutes with agitation, then filtered using a FilterMate Harvester® (Perkin Elmer) or similar equipment through a UniFilter-96® PEI coated plate (Perkin Elmer Cat. No. 6005274 or 6005277). Filtering was achieved by aspirating the contents of the assay plate for 5 seconds, then washing and aspirating the contents three times with ice-cooled wash buffer (assay buffer supplemented with 0.0025% Brij58) and allowing the vacuum manifold to dry the plate for 30 seconds. The filter plate was incubated for at least 1 hour at 55° C. and allowed to dry. The bottom of the filter plate was then sealed with backing tape. 40 μL Ultima Gold™ (Perkin Elmer, Cat. No. 6013329) was added to each well of the filter plate and the top of the plate was sealed with TopSeal-A PLUS® clear plate seal (Perkin Elmer, Cat. No. 6050185). The plates were then incubated for at least 20 minutes, and then the amount of radioactivity remaining in each well was determined using a TopCount® (Perkin Elmer) scintillation counter. After normalization to total and non-specific binding, the percent effect at each compound concentration was calculated. The plot of percent effect versus the log of compound concentration was analyzed electronically using a 4-parameter logistic fit based on the Levenberg-Marquardt algorithm to generate IC50 values.

In assay [2] the target is human A2a adenosine receptor (Homo sapiens (Human), UniProt P29274). Put plainly: A2a receptor affinity radioligand binding assay ([3H] SCH58261). To be noted: membranes from HEK293 or CHO cells expressing human A2a receptor. The method, then:
The A2a receptor affinity binding assay measured the amount of binding of a tritiated ligand with high affinity for the A2a adenosine receptor to membranes made from HEK293 or CHO cells recombinantly expressing the human A2a adenosine receptor, in the presence of varying concentrations of a compound of the invention.
Measurement of A2a Binding Affinity Using Radioligand Binding
148 μL (5 μg/mL) membranes (Perkin Elmer, Cat. No. RBHA2aM400UA) and 2 μL compounds of the invention to be tested (test compound) were transferred to individual wells of a 96-well polypropylene assay plate and incubated for 15 to 30 minutes at room temperature. [^3H] SCH58261 ((7-(2-phenylethyl)-5-amino-2-(2-furyl)-pyrazolo-[4,3-e]-1,2,4-triazolo[1,5-c]pyrimidine)) was diluted in assay buffer (50 mM Tris pH 7.4, 10 mM MgCl2, 0.005% Tween20) to a concentration of 4 nM and 50 μL transferred to each well of the assay plate. To define total and non-specific binding, wells containing 1% DMSO and 1 μM ZM241385 (Tocris Bioscience, Cat. No. 1036) respectively, were also included. The assay plate was incubated at room temperature for 60 minutes with agitation. Using a FilterMate Harvester® (Perkin Elmer), the contents of the assay plate were filtered through a UniFilter-96® PEI coated plate (Perkin Elmer Cat. No. 6005274 or 6005277). Filtering was achieved by aspirating the contents of the assay plate for 5 seconds, then washing and aspirating the contents three times with ice-cooled wash buffer (50 mM Tris-HCl pH 7.4, 150 mM NaCl) and allowing the vacuum manifold to dry the plate for 30 seconds. The filter plate was incubated for at least 1 hour at 55° C., and allowed to dry. The bottom of the filter plate was sealed with backing tape. 40 μL Ultima Gold™ (Perkin Elmer, Cat. No. 6013329) was added to each well of the filter plate and the top of the plate was sealed with TopSeal-A PLUS® clear plate seal (Perkin Elmer, Cat. No. 6050185). The plate was incubated for at least 20 minutes, and then the amount of radioactivity remaining in each well was determined using a TopCount® (Perkin Elmer) scintillation counter. After normalization to total and non-specific binding, the percent effect at each compound concentration was calculated. The plot of percent effect versus the log of compound concentration was analyzed electronically using a 4-parameter logistic fit based on the Levenberg-Marquardt algorithm to generate IC50 values.

Chain of human A2a adenosine receptor (P29274 whole entry): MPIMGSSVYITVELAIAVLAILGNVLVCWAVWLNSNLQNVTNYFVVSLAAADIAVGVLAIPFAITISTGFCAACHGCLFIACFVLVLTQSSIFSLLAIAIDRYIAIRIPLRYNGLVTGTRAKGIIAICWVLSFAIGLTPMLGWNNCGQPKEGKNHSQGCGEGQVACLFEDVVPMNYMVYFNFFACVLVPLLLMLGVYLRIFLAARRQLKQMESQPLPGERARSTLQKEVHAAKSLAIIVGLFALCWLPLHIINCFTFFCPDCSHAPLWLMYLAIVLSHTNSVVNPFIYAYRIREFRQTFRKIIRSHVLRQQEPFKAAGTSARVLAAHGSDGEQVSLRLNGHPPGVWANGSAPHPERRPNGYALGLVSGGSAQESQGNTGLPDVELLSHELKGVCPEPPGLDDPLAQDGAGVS
Chain of human A2b adenosine receptor (P29275 whole entry): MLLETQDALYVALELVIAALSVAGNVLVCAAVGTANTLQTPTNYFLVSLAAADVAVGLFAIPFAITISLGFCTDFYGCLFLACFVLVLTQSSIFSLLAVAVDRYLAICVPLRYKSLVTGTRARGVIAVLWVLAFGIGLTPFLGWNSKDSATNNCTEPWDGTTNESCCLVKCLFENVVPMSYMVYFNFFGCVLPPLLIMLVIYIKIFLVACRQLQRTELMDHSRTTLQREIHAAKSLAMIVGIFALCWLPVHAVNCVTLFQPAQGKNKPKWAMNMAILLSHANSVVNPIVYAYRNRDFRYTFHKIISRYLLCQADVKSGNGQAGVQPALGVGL

As to `COc1cc(F)cc2c1nc(N)n1nc(C3CC(F)CN(c4cnn(CC5(O)CCC5)c4)C3)nc21` (single isomer, unassigned) [Example 72, 1-(4-((3R,5S or 3S,5R)-3-(5-amino-9-fluoro-7-methoxy-[1,2,4]triazolo[1,5-c]quinazolin-2-yl)-5-fluoropiperidin-1-yl)-1H-pyrazol-1-yl)methyl)cyclobutan-1-ol], the IC50 in assay [1] stood at 484 nM; in assay [2], 2 nM.
Turning to `COc1cc(F)cc2c1nc(N)n1nc(C3CC(F)CN(c4cnn(CC5(O)CCC5)c4)C3)nc21` (single isomer, unassigned) [Example 73, 1-(4-((3S,5R or 3R,5S)-3-(5-amino-9-fluoro-7-methoxy-[1,2,4]triazolo[1,5-c]quinazolin-2-yl)-5-fluoropiperidin-1-yl)-1H-pyrazol-1-yl)methyl)cyclobutan-1-ol], the values for the IC50 in assay [1] and in assay [2] were 5120 nM and 436 nM, respectively.
Regarding `COc1cc(F)cc2c1nc(N)n1nc([C@@H]3C[C@@H](F)CN(c4cnn(CC(C)(C)O)c4)C3)nc21` (single isomer, unassigned) [Example 74, 1-(4-((3R,5R or 3S,5S)-3-(5-amino-9-fluoro-7-methoxy-[1,2,4]triazolo[1,5-c]quinazolin-2-yl)-5-fluoropiperidin-1-yl)-1H-pyrazol-1-yl)-2-methylpropan-2-ol], the IC50 in assay [1] was 153 nM; in assay [2], 0.9 nM.
For `COc1cc(F)cc2c1nc(N)n1nc([C@H]3C[C@H](F)CN(c4cnn(CC(C)(C)O)c4)C3)nc21` (single isomer, unassigned) [Example 75, 1-(4-((3S,5S or 3R,5R)-3-(5-amino-9-fluoro-7-methoxy-[1,2,4]triazolo[1,5-c]quinazolin-2-yl)-5-fluoropiperidin-1-yl)-1H-pyrazol-1-yl)-2-methylpropan-2-ol], in assay [1], the “A2B binding % Inh. @ 10000 nM” value worked out at 54% Inh. Further, the IC50 in assay [2] was found to be 56.9 nM.
Taken in the same sequence, the figures for `COc1cc(F)cc2c1nc(N)n1nc(C3CC(F)CN(c4cn(CC(C)(C)O)nc4C)C3)nc21` (single isomer, unassigned) [Example 76, 1-(4-((3R,5R or 3S,5S)-3-(5-amino-9-fluoro-7-methoxy-[1,2,4]triazolo[1,5-c]quinazolin-2-yl)-5-fluoropiperidin-1-yl)-3-methyl-1H-pyrazol-1-yl)-2-methylpropan-2-ol] were 34% Inh and 256 nM.
For the molecule `COc1cc(F)cc2c1nc(N)n1nc(C3CC(F)CN(c4cn(CC(C)(C)O)nc4C)C3)nc21` (single isomer, unassigned) [Example 77, 1-(4-((3S,5S or 3R,5R)-3-(5-amino-9-fluoro-7-methoxy-[1,2,4]triazolo[1,5-c]quinazolin-2-yl)-5-fluoropiperidin-1-yl)-3-methyl-1H-pyrazol-1-yl)-2-methylpropan-2-ol], the IC50 in assay [1] was 108 nM; in assay [2] it was 0.4 nM.
The matching figures for `COc1cc(F)cc2c1nc(N)n1nc(C3CC(F)CN(c4cnn(CC5(O)CCC5)c4)C3)nc21` (single isomer, unassigned) [Example 78, 1-(4-((3R,5R or 3S,5S)-3-(5-amino-9-fluoro-7-methoxy-[1,2,4]triazolo[1,5-c]quinazolin-2-yl)-5-fluoropiperidin-1-yl)-1H-pyrazol-1-yl)methyl)cyclobutan-1-ol]: 234 nM and 0.9 nM.
The matching figures for `COc1cc(F)cc2c1nc(N)n1nc(C3CC(F)CN(c4cnn(CC5(O)CCC5)c4)C3)nc21` (single isomer, unassigned) [Example 79, 1-(4-((3S,5S or 3R,5R)-3-(5-amino-9-fluoro-7-methoxy-[1,2,4]triazolo[1,5-c]quinazolin-2-yl)-5-fluoropiperidin-1-yl)-1H-pyrazol-1-yl)methyl)cyclobutan-1-ol]: 3140 nM and 16 nM.
Turning to `COc1cc2nc(N)n3nc([C@@H]4C[C@@H](F)CN(c5cnn(CC(C)(C)O)c5)C4)nc3c2cc1F` (single isomer, unassigned) [Example 80, 1-(4-((3R,5R or 3S,5S)-3-(5-amino-9-fluoro-8-methoxy-[1,2,4]triazolo[1,5-c]quinazolin-2-yl)-5-fluoropiperidin-1-yl)-1H-pyrazol-1-yl)-2-methylpropan-2-ol], the IC50 in assay [1] amounted to 404 nM; in assay [2] it was 11.6 nM.
Taken in the same sequence, the figures for `COc1cc2nc(N)n3nc([C@H]4C[C@H](F)CN(c5cnn(CC(C)(C)O)c5)C4)nc3c2cc1F` (single isomer, unassigned) [Example 81, 1-(4-((3S,5S or 3R,5R)-3-(5-amino-9-fluoro-8-methoxy-[1,2,4]triazolo[1,5-c]quinazolin-2-yl)-5-fluoropiperidin-1-yl)-1H-pyrazol-1-yl)-2-methylpropan-2-ol] were 6580 nM and 121 nM.
Take `COc1cc2nc(N)n3nc([C@@H]4CCCN(c5cnn([C@@H]6CCC[C@@]6(C)O)c5)C4)nc3c2cc1F` (single isomer, unassigned) [Example 82, (1R or 1S,2R or 2S)-2-(4-((R)-3-(5-amino-9-fluoro-8-methoxy-[1,2,4]triazolo[1,5-c]quinazolin-2-yl)piperidin-1-yl)-1H-pyrazol-1-yl)-1-methylcyclopentan-1-ol]: the results for the IC50 in assay [1] and in assay [2] were 63 nM and 4.9 nM, respectively.
Taken in the same sequence, the figures for `COc1cc2nc(N)n3nc([C@@H]4CCCN(c5cnn([C@H]6CCC[C@]6(C)O)c5)C4)nc3c2cc1F` (single isomer, unassigned) [Example 83, (1S or 1R,2S or 2R)-2-(4-((R)-3-(5-amino-9-fluoro-8-methoxy-[1,2,4]triazolo[1,5-c]quinazolin-2-yl)piperidin-1-yl)-1H-pyrazol-1-yl)-1-methylcyclopentan-1-ol] were 113 nM and 2.7 nM.
For the molecule `COc1cc2nc(N)n3nc([C@@H]4CCCN(c5cnn(C6CCCC6O)c5)C4)nc3c2cc1F` (single isomer, unassigned) [Example 84, (1R or 1S,2R or 2S)-2-(4-((R)-3-(5-amino-9-fluoro-8-methoxy-[1,2,4]triazolo[1,5-c]quinazolin-2-yl)piperidin-1-yl)-1H-pyrazol-1-yl)cyclopentan-1-ol], the IC50 in assay [1] was 117 nM; in assay [2], 2.3 nM.
In the case of `COc1cc2nc(N)n3nc([C@@H]4CCCN(c5cnn(C6CCCC6O)c5)C4)nc3c2cc1F` (single isomer, unassigned) [Example 85, (1S or 1R,2S or 2R)-2-(4-((R)-3-(5-amino-9-fluoro-8-methoxy-[1,2,4]triazolo[1,5-c]quinazolin-2-yl)piperidin-1-yl)-1H-pyrazol-1-yl)cyclopentan-1-ol], the IC50 in assay [1] was 192 nM; in assay [2], 5.2 nM.

By IC50 is commonly meant the midpoint of a concentration-inhibition curve. Read a high IC50 as a need for much substance.
